Square brackets hold non-standard residues; d marks the D form. Peptide text beside a SMILES is read from it. * marks the point of attachment. Trp(1-Me) = Cn1cc(C[C@H](N)C(=O)O)c2ccccc21; Tic = O=C(O)[C@@H]1Cc2ccccc2CN1; pGlu = O=C1CC[CH](C(=O)O)N1; Hyp = O=C(O)[CH]1C[CH](O)CN1; Phg = N[CH](C(=O)O)c1ccccc1; ΔPro = O=C(O)[C@@H]1C=CCN1; Pip = O=C(O)[C@@H]1CCCCN1; αMeP = C[C]1(C(=O)O)CCCN1; Cbz = O=C(OCc1ccccc1)*; Aze = O=C(O)[CH]1CCN1; Boc = CC(C)(C)OC(=O)*
Tests used:
[1] = test system: human lymphocytes in culture; experiment: immuno-modulating activity: stimulation of growth of human lymphocytes in culture after addition of specific antigens; format: cell-based; details: for immune response / immuno-stimulating activity (in words): human lymphocytes in culture, antigen not stated
Description: (§1) In the following examples will first of all be given the data necessary for synthesis of the compounds according to the present invention. There will then be given data regarding their pharmacological activity, using methods widely known to be valid. In particular, for the pressure tests, spontaneously hyper-tensive rats were used (SHR from the company Charles River), operated in such a way as to enable pressure to be read even when the animals were awake and free to move. In order to evaluate the analgesic activity, the Hot Plate and Writhing Tests were used. For the anti-inflammatory effect the test of carraginine edema was used. Finally, for immuno-modulating activity the evaluation of the stimulation of growth of human lymphocytes in culture was resorted to, after the addition of specific antigens. The results obtained for each synthesized compound are given at the end of each example.

[2] = Hot Plate test (analgesic activity); format: in vivo
Description: as §1

[3] = test system: spontaneously hyper-tensive rats (SHR from the company Charles River); experiment: pressure tests in spontaneously hypertensive rats, awake and free to move; format: in vivo
Description: as §1, with “antigens.” for “antigens. The results obtained for each synthesized compound are given at the end of each example.”

[4] = analgesic activity, test not given (Hot Plate and Writhing Tests were used); format: in vivo; details: test and dose not stated
Description: as §1

carraginine edema = experiment: anti-inflammatory effect, test of carraginine edema; format: in vivo; details: edema from carrageenin; dose not stated
Description: as §1

CCOC(=O)[C@@H]1Cc2c([nH]c3ccccc23)CN1C(=O)[C@H](C)NC(=O)[C@@H]1CCCN1C(=O)OCc1ccccc1 [compound 1, Z-(L)-Pro-(L)-Ala-(S)-CytOEt]
response of lymphocytes stimulated by phytohemoagglutinine (PHA) (in words) ([1]; PHA stimulated lymphocytes): increases the response of lymphocytes
pain killing effect under the Hot Plate test (in words) ([2]; 4 mg/Kg i.p.): slight pain killing effect
anti-hypertensive effect (in words) ([3]; 4 mg/Kg i.p.): good anti-hypertensive effect
duration of the anti-hypertensive effect ([3]; 4 mg/Kg i.p.): a number of hours
reduction of pressure values ([3]; 4 mg/Kg i.p.): 15-20%

C[C@H](NC(=O)[C@@H]1CCCN1C(=O)OCc1ccccc1)C(=O)NCCc1c[nH]c2ccccc12 [compound 2, Z-(L)-Pro-(L)-Ala-TrpH]
immune response / immuno-stimulating activity (in words) [1]: increased, but to a lesser extent than in the previous compound
anti-hypertensive effect (in words) ([3]; dose not stated): comparable to that of compound 1

C[C@H](NC(=O)[C@@H]1CCCN1C(=O)OCc1ccccc1)C(=O)N1CCc2c([nH]c3ccccc23)C1 [compound 3, Z-(L)-Pro-(L)-Ala-CytH]
anti-hypertensive effect (in words) ([3]; 8 mg/Kg i.p.): bland anti-hypertensive effect

COC(=O)[C@H](Cc1ccc(OC)cc1)NC(=O)[C@H](C)NC(=O)[C@@H]1CCCN1C(=O)OCc1ccccc1 [compound 4, Z-(L)-Pro-(L)-Ala-(L)-OmtOMe] (Cbz-Pro-Ala-Tyr(Me)-OMe)
immune response / immuno-stimulating activity (in words) [1]: slightly increased
anti-hypertensive effect (in words) ([3]; 8 mg/Kg i.v.): bland anti-hypertensive effect

COC(=O)[C@@H](NC(=O)[C@H](C)NC(=O)[C@@H]1CCCN1C(=O)OCc1ccccc1)c1ccccc1 [compound 5, Z-(L)-Pro-(L)-Ala-(L)-PhgOMe] (Cbz-Pro-Ala-[Phg]-OMe)
analgesic effect, Hot Plate test (in words) ([2]; dose not stated): moderate analgesic effect
anti-hypertensive effect (in words) ([3]; 8 mg/Kg i.p.): bland anti-hypertensive effect

COC[C@H](Cc1ccccc1)NC(=O)[C@H](C)NC(=O)[C@@H]1CCCN1C(=O)OCc1ccccc1 [compound 6, Z-(L)-Pro-(L)-Ala-(L)-Pme]
immune response / immuno-stimulating activity (in words) [1]: more consistent
analgesic effect (in words) [4]: good analgesic activity
anti-hypertensive effect (in words) ([3]; 2 mg/Kg i.v.): good anti-hypertensive activity
reduction of pressure after one hour ([3]; 2 mg/Kg i.v., after one hour): approximately 25%
anti-inflammatory effect (in words) (carraginine edema): rather weak

COC(=O)[C@H](Cc1cn(C)c2ccccc12)NC(=O)[C@H](C)NC(=O)[C@@H]1CCCN1C(=O)OCc1ccccc1 [compound 7, Z-(L)-Pro-(L)-Ala-(1)-Me-(L)-TrpOMe] (Cbz-Pro-Ala-[Trp(1-Me)]-OMe)
anti-hypertensive effect (in words) ([3]; 2 mg/Kg i.v.): good anti-hypertensive effect
reduction of pressure ([3]; 2 mg/Kg i.v.): 10%

COC(=O)[C@H](Cc1c[nH]c2ccccc12)NC(=O)[C@H](CC(C)C)NC(=O)c1ccco1 [compound 8, 2-Fur-(L)-Leu-(L)-TrpOMe]
immune response / immuno-stimulating activity (in words) [1]: strongly stimulated even with small doses of peptide
anti-hypertensive effect (in words) ([3]; 4 mg/Kg i.v.): slight anti-hypertensive effect
anti-inflammatory effect (in words) (carraginine edema): slight antiinflammatory effect

COC(=O)[C@H](Cc1c[nH]c2ccccc12)NC(=O)[C@H](CC(C)C)NC(=O)c1ccc[nH]1 [compound 9, 2-Pyrrolyl-(L)-Leu-(L)-TrpOMe]
anti-hypertensive effect (in words) ([3]; dose not stated): slight effect on pressure
anti-inflammatory effect (in words) (carraginine edema): bland reduction of inflammatory responses

COC(=O)C(Cc1c[nH]c2ccccc12)NC(=O)C(CC(C)C)NC(=O)C1CCCN1C.Cl (stereo not drawn) [compound 10, N-Me-(L)-Pro-(L)-Leu-(L)-TrpOMe.HCl]
immune response / immuno-stimulating activity (in words) [1]: slightly increased
analgesic effect (in words) [4]: low analgesic effect
anti-hypertensive effect (in words) ([3]; 2 mg/Kg i.v.): excellent anti-hypertensive effect
reduction of pressure ([3]; 2 mg/Kg i.v.): 15-20%

COC(=O)[C@@H]1Cc2ccccc2CN1C(=O)[C@H](C)NC(=O)[C@@H]1CCCN1C(=O)OCc1ccccc1 [compound 11, Z-(L)-Pro-(L)-Ala(L)-CypOMe] (Cbz-Pro-Ala-[Tic]-OMe)
anti-hypertensive effect (in words) ([3]; dose not stated): slight anti-hypertensive effect
anti-inflammatory effect (in words) (carraginine edema): moderate anti-inflammatory effect

COC(=O)C(Cc1c[nH]c2ccccc12)NC(=O)C(CC(C)C)NC(=O)C1(C)CCCN1C(=O)OC(C)(C)C (stereo not drawn) [compound 12, Boc-(L)-Mep-(L)-Leu-(L)-TrpOMe] (Boc-[αMeP]-Leu-Trp-OMe; configuration not given here)
anti-hypertensive effect (in words) ([3]; dose not stated): bland anti-hypertensive effect
anti-inflammatory effect (in words) (carraginine edema): reduction of the inflammatory response

COC(=O)[C@H](Cc1c[nH]c2ccccc12)NC(=O)[C@H](CC(C)C)NC(=O)[C@@H]1C=CCN1C(=O)OC(C)(C)C [compound 13, Boc-.gradient.^3,4 -(L)-Pro-(L)-Leu-(L)-TrpOMe] (Boc-[ΔPro]-Leu-Trp-OMe)
immune response / immuno-stimulating activity (in words) [1]: slightly increases the immune response
anti-hypertensive effect (in words) ([3]; dose not stated): slightly anti-hypertensive

COC(=O)[C@H](Cc1c[nH]c2ccccc12)NC(=O)[C@H](CC(C)C)NC(=O)[C@@H]1Cc2ccccc2N1C(=O)OCc1ccccc1 [compound 14, Z-(S)-Dhi-(L)-Leu-(L)-TrpOMe]
analgesic effect (in words) [4]: moderate analgesic effect
anti-hypertensive effect (in words) ([3]; dose not stated): bland reduction of pressure

COC(=O)[C@H](Cc1c[nH]c2ccccc12)NC(=O)[C@H](CC(C)C)NC(=O)[C@@H]1CCCCN1C(=O)OCc1ccccc1 [compound 15, Z-(L)-Pip-(L)-Leu-(L)-TrPOMe] (Cbz-[Pip]-Leu-Trp-OMe)
immune response / immuno-stimulating activity (in words) [1]: slight increase in immune response
anti-hypertensive effect (in words) ([3]; 2 mg/Kg i.v.): good anti-hypertensive effect
reduction of pressure ([3]; 2 mg/Kg i.v.): up to 30%
anti-inflammatory effect (in words) (carraginine edema): consistent

COC(=O)C(Cc1c[nH]c2ccccc12)NC(=O)C(CC(C)C)NC(=O)C1CC(O)CN1C(=O)OCc1ccccc1 (stereo not drawn) [compound 16, Z-(L)-Hyp-(L)-Leu-(L)-TrpOMe] (Cbz-[Hyp]-Leu-Trp-OMe; configuration not given here)
analgesic effect (in words) [4]: modest analgesic effect
anti-hypertensive effect (in words) ([3]; dose not stated): bland anti-hypertensive action

COC(=O)C(Cc1c[nH]c2ccccc12)NC(=O)C(CC(C)C)NC(=O)C1CCN1C(=O)OCc1ccccc1 [compound 17, Z-(S)-Aze-(L)-Leu-(L)-TrpOMe] (Cbz-[Aze]-Leu-Trp-OMe; configuration not given here)
anti-hypertensive effect (in words) ([3]; dose not stated): slight anti-hypertensive effect
anti-inflammatory effect (in words) (carraginine edema): bland anti-inflammatory activity

COC(=O)[C@H](Cc1c[nH]c2ccccc12)NC(=O)[C@H](CC(C)C)NC(=O)[C@@H]1CCCO1 [compound 18, (S)-Tfc-(L)-Leu-(L)-TrpOMe]
immune response / immuno-stimulating activity (in words) [1]: stimulates the immune response in a moderate manner
anti-hypertensive effect (in words) ([3]; dose not stated): bland anti-hypertensive effect

COC(=O)[C@H](Cc1c[nH]c2ccccc12)NC(=O)[C@H](CC(C)C)NC(=O)[C@@H]1CCC(=O)N1C(=O)OCc1ccccc1 [compound 19, Z-(L)-Pyr-(L)-Leu-(L)-TrpOMe]
anti-hypertensive effect (in words) ([3]; dose not stated): slight anti-hypertensive effect
anti-inflammatory effect (in words) (carraginine edema): fair anti-inflammatory activity

COC(=O)[C@@H]1Cc2c([nH]c3ccccc23)CN1C(=O)[C@H](CC(C)C)NC(=O)[C@@H]1CCC(=O)N1C(=O)OCc1ccccc1 [compound 20, Z-(L)-Pyr-(L)-Leu-(S)-CytOMe]
anti-hypertensive effect (in words) ([3]; dose not stated): bland anti-hypertensive activity
anti-inflammatory effect (in words) (carraginine edema): fair anti-inflammatory activity

COC(=O)[C@@H]1Cc2ccccc2CN1C(=O)[C@H](CC(C)C)NC(=O)[C@@H]1CCC(=O)N1C(=O)OCc1ccccc1 [compound 21, Z-(L)-Pyr-(L)-Leu-(S)-CyPOMe]
immune response / immuno-stimulating activity (in words) [1]: good immuno-stimulating activity
anti-hypertensive effect (in words) ([3]; dose not stated): slight anti-hypertensive activity

COC(=O)C(NC(=O)CNC(=O)C1CCC(=O)N1)c1ccccc1 (stereo not drawn) [compound 22, (L)-Pyr-Gly-(L)-PhgOMe] ([pGlu]-Gly-[Phg]-OMe; configuration not given here)
immune response / immuno-stimulating activity (in words) [1]: appears to increase the immune response
anti-hypertensive effect (in words) ([3]; 4 mg/Kg i.p.): excellent anti-hypertensive activity
reduction of pressure values ([3]; 4 mg/Kg i.p.): 20%
anti-inflammatory effect (in words) (carraginine edema): very good

COC[C@H](Cc1ccccc1)NC(=O)CNC(=O)[C@@H]1CCC(=O)N1 [compound 23, (L)-Pyr-Gly-(L)-Pme]
immune response / immuno-stimulating activity (in words) [1]: good immuno-stimulating effect
analgesic effect (in words) [4]: excellent analgesic effect
anti-hypertensive effect (in words) ([3]; 8 mg/Kg i.p.): good anti-hypertensive activity

COC(=O)[C@@H]1Cc2ccccc2CN1C(=O)CNC(=O)[C@@H]1CCC(=O)N1 [compound 24, (L)-Pyr-Gly-(L)-CypOMe] ([pGlu]-Gly-[Tic]-OMe)
anti-hypertensive effect (in words) ([3]; dose not stated): bland anti-hypertensive action
anti-inflammatory effect (in words) (carraginine edema): moderate anti-inflammatory action

COC(=O)[C@@H]1Cc2c([nH]c3ccccc23)CN1C(=O)[C@H](CC(C)C)NC(=O)[C@@H]1CCC(=O)N1 [compound 25, (L)-Pyr-(L)-Leu-(S)-CytOMe]
analgesic effect (in words) [4]: weak analgesic activity
anti-hypertensive effect (in words) ([3]; dose not stated): bland anti-hypertensive effect
